Entries after “also recorded” stand apart in the source; their conditions may differ. Values belong to the compound of their own block, whether it stands above or below them.
Experiments:
[1] = test system: cardioids (LV, RV, OFT, Atria, AVC); details: for dosage at which severe compartment-specific and stage-specific effects were observed: human
[2] = test system: cardioids (LV, RV, OFT, Atria, AVC); experiment: Real-time qPCR of cardioids treated with teratogens; format: cell-based, human
Procedure: The isolated RNA was reverse transcribed to cDNA using the Reverse Transcription Kit (Invitrogen, #18080044) with a C100 Touch Bio-Rad Thermal Cycler. Quantitative PCR was performed using the GoTaq qPCR master mix 2× (Promega, #A6001) with a Bio-Rad CFX384 Real-Time thermal cycler. Values of gene expression of each sample were obtained in triplicates. The Log-fold change of the sample from PBGD as a housekeeping gene and a pluripotent stem cell sample for normalization were used.

[3] = test system: FHF and aSHF progenitors / cardioids; experiment: Lineage specification of cardiac progenitors/cardioids by retinoic acid dosage; format: cell-based, human; details: LV (FHF progenitor), Cardiac Mesoderm Patterning Media One
Procedure: These were termed 3D protocols.
The retinoic acid concentration should be low as a higher concentration (>100 nM) leads to FHF-derived atria, not ventricular fate.
The retinoic acid addition here helps drive the RV identity.

[4] = cited from earlier work

SMILES: COc1cc(C)c(/C=C/C(C)=C/C=C/C(C)=C/C(=O)O)c(C)c1C [Acitretin]
- CM differentiation and morphology of treated cardioids [1]: Inefficient CM differentiation and morphological changes
- defects in OFT, atrial, and AVC cardioids [1]: specification, patterning and morphogenesis defects
- dosage at which severe compartment-specific and stage-specific effects were observed [1]: 5 nM

- effect on all the other cardioid subtypes [1]: unaffected
SMILES: CC1=C(/C=C/C(C)=C/C=C/C(C)=C/CO)C(C)(C)CCC1 [All trans Retinol]
- morphological effect on OFT cardioids [1]: severe morphological effect on OFT cardioids
- size difference between treated and untreated cardioids [1]: no size difference between treated and untreated cardioids within one protocol the except LV cardioids treated with 50 nM
- gene expression in OFT cardioids (OFT, ventricular, chamber, atrial genes) ([2]; OFT cardioids): downregulation of OFT and upregulation of ventricular genes

SMILES: CC(=O)Oc1ccccc1C(=O)O [Aspirin]
- size and TNNI-GFP expression compared to untreated cardioids [1]: no size and TNNI-GFP expression differences
- gene expression differences vs control cardioids ([2]; high 30 μM dosage): no obvious gene expression differences; also recorded: neither observed morphological nor significant gene expression differences

- dosage at which severe compartment-specific and stage-specific effects were observed [1]: 1 nM
SMILES: CC1=C(/C=C/C(C)=C/C=C/C(C)=C\C(=O)O)C(C)(C)CCC1 [Isotretinoin]
- defects in OFT, atrial, and AVC cardioids [1]: specification, patterning and morphogenesis defects

SMILES: CC1=C(/C=C/C(C)=C/C=C/C(C)=C/C(=O)O)C(C)(C)CCC1 [retinoic acid]
- retinoic acid concentration that leads to FHF-derived atria, not ventricular fate [3]: > 100 nM

SMILES: O=C1CCC(N2C(=O)c3ccccc3C2=O)C(=O)N1 (stereo not shown) [thalidomide]
- human therapeutic plasma concentrations [4]: ~2.4 µM
- expression of chamber-specific marker NPPA ([2]; d9.5 cardioids): downregulation of the chamber-specific marker NPPA for all lineages except for the RV and OFT
- expression of compartment identity markers (NR2F2, IRX1/4) ([2]; d9.5 cardioids): dosage-specific misregulation of compartment identity markers (NR2F2, IRX1/4)
- expression of lineage specific genes ([2]; d9.5 cardioids, fold change normalized to housekeeping gene and pluripotency): mis-regulation of lineage specific genes
